The results in this text go back to US3995044A, “Pyridine carboxylic acid amides for mycobacterium infections” (priority 1974, dated 1976).

Converted amounts (≈) assume the structure as drawn.

For assay [1], the system named is Mycobacterium tuberculosis H37Rv. In words: Minimum inhibitory concentration on Lowenstein-Jensen egg medium, normally sensitive test strain. The assay is classed as cell-based. The note with it: per ml of nutrient medium.
Assay [2] shares this test system. In words: In vivo action in mice infected with tuberculosis (Tb germ count in spleen). Details: species or system white mice (CFI breed). The conditions noted are these: once daily, 2 weeks (5 times per week); for In vivo action, index of reduction in Tb germs, Tb-mice, orally: 100 mg/kg orally; for In vivo action, index of reduction in Tb germs, Tb-mice, subcutaneously: 100 mg/kg subcutaneously. The protocol: (§1) The animal experiments were above all carried out with white mice (CFI breed, Winkelmann, Kirchborchen) infected with Mycobacterium tuberculosis H37Rv. After intravenous infection with 10^4 -10^5 germ units/mouse, an oral or subcutaneous treatment was carried out once daily for a period of 2 weeks (that is to say 5 times per week). At predetermined intervals of time (11th, 14th and 17th day after infection) mice from the treatment groups were killed, the spleens were removed and standardised smear preparations were produced from the homogenate; the tubercle germ content in these was evaluated by means of fluorescence microscopy. […] The values obtained are grouped together in 5 rating groups and give a germ count index; the indices denote the following:
(§2) Index 0 corresponds to a reduction in the germ count of
(§3) Index 1 corresponds to a reduction in the germ count of
(§4) Index 2 corresponds to a reduction in the germ count of
(§5) >40-70% = distinct action
(§6) Index 3 corresponds to a reduction in the germ count of
Index 4 corresponds to a reduction in the germ count of […]

The test system is the same in assay [3]. Description: In vivo action in guinea pigs infected with tuberculosis (Tb germ count in lung). The note with it: 30 mg/kg orally, once daily from 14th day, 3 weeks (5 times per week). As to the method: as §1, §2, §3, §4, §5, §6
Index 4 corresponds to a reduction in the germ count of
In addition to the experiments on mice infected with tuberculosis, experiments were carried out analogously on guinea pigs. In this case, the germ count was determined on the lung homogenate. The animals were infected subcutaneously intrainguinally with Mycobacterium tuberculosis H37Rv and were subjected to therapy once daily from the 14th day after infection over a period of 3 weeks, that is to say 5 times per week. The germ counts were determined in the 4th, 5th and 6th week after infection.

Assay [4] has the same test system. Description: MIC in modified Difco-Tb-Bouillon, normally sensitive strain. It is filed as cell-based.
In assay [5] the test system is M. bovis Ravenal. Description: microbe, parasite or virus in culture. The assay is classed as cell-based. The note with it: Mycobacterium tuberculosis variant bovis, read-out: MIC, M. bovis Ravenal.
The test system of assay [6] is "Atypical mycobacteria" Runyon Grouping 1. In words: Anti-mycobacterial spectrum of action (MIC), atypical mycobacteria Runyon grouping 1. The assay is classed as cell-based. The note with it: modified Difco-Tb-Bouillon.
Assay [7] concerns "Atypical mycobacteria" Runyon Grouping 2. In words: Anti-mycobacterial spectrum of action (MIC), atypical mycobacteria Runyon grouping 2. The conditions noted are these: modified Difco-Tb-Bouillon. The assay is classed as cell-based.
The subject of assay [8] is "Atypical mycobacteria" Runyon Grouping 3. In words: Anti-mycobacterial spectrum of action (MIC), atypical mycobacteria Runyon grouping 3. The assay is classed as cell-based. The note with it: modified Difco-Tb-Bouillon.
In assay [9] the test system is "Atypical mycobacteria" Runyon Grouping 4. Description: Anti-mycobacterial spectrum of action (MIC), atypical mycobacteria Runyon grouping 4. It is filed as cell-based. The note with it: modified Difco-Tb-Bouillon.
[10] abbreviates: Table 2, read-out: MIC, normally sensitive H37Rv (Table 2).
Setting [11] is: Table 3, read-out: MIC, M. tuberculosis H37Rv (Table 3).

For `O=C(NCc1cnc2ccccc2c1)c1cc([N+](=O)[O-])cc([N+](=O)[O-])c1` [Example 9], the MIC in assay [1] was 2 µg/mL (≈ 5.68 µM); in assay [4] (setting [10]) it was 0.2 µg/mL (≈ 0.568 µM); in assay [4] (setting [11]), 0.2 µg/mL (≈ 0.568 µM); in [5], 0.4 µg/mL (≈ 1.14 µM); in [6], 3.1 µg/mL (≈ 8.8 µM); in assay [7] it was 3.1 µg/mL (≈ 8.8 µM). Further, the MIC was above 100 µg/mL in assay [8] and 1.6 µg/mL (≈ 4.54 µM) in assay [9]. Moreover, the “In vivo action, index of reduction in Tb germs, Tb-mice, orally” value in [2] is recorded as 1 (reduction in the germ count of >20-40% = trace action). In addition, in assay [2], the “In vivo action, index of reduction in Tb germs, Tb-mice, subcutaneously” value is given as 1 (reduction in the germ count of >20-40% = trace action). Moreover, in [3], the “In vivo action, index of reduction in Tb germs, Tb-guinea pigs, orally” value is listed as 4 (reduction in the germ count of >90% = very good action).

For the compound `Cc1cccc(CNC(=O)c2cc([N+](=O)[O-])cc([N+](=O)[O-])c2)n1` [Example 14], the MIC was 3.1 µg/mL (≈ 9.8 µM) in assay [4] (setting [10]); 3.1 µg/mL (≈ 9.8 µM) in [4] (setting [11]); 3.1 µg/mL (≈ 9.8 µM) in assay [5]; 6.2 µg/mL (≈ 19.6 µM) in assay [6]; 12.5 µg/mL (≈ 39.5 µM) in assay [7]; 25 µg/mL (≈ 79 µM) in assay [8]. In assay [9], the MIC amounted to 12.5 µg/mL (≈ 39.5 µM).

As for `O=C(NCC1CCC=CO1)c1cc([N+](=O)[O-])cc([N+](=O)[O-])c1` (stereo not shown) [Example 22], the MIC was 0.4 µg/mL (≈ 1.3 µM) in assay [4] (setting [10]); 0.4 µg/mL (≈ 1.3 µM) in [4] (setting [11]); 3.1 µg/mL (≈ 10.1 µM) in assay [5]; 1.6 µg/mL (≈ 5.21 µM) in assay [6]; 1.6 µg/mL (≈ 5.21 µM) in assay [7]; above 100 µg/mL in [8]. The same compound yielded an MIC in [9] of 1.6 µg/mL (≈ 5.21 µM).

Take `O=C(NCC1CCCO1)c1cc([N+](=O)[O-])cc([N+](=O)[O-])c1` (stereo not shown) [Example 20]: the MIC turned out to be 1.6 µg/mL (≈ 5.42 µM) in assay [4] (setting [10]); 1.6 µg/mL (≈ 5.42 µM) in [4] (setting [11]); 3.1 µg/mL (≈ 10.5 µM) in assay [5]; 6.2 µg/mL (≈ 21 µM) in [6]; 6.2 µg/mL (≈ 21 µM) in [7]; 100 µg/mL (≈ 339 µM) in [8]. In addition, the MIC in [9] worked out at 6.2 µg/mL (≈ 21 µM).

In turn, `O=C(NCc1ccncc1)c1cc([N+](=O)[O-])cc([N+](=O)[O-])c1` [Example 13] came in with an MIC in [1] of 32 µg/mL (≈ 106 µM). In assay [2], the “In vivo action, index of reduction in Tb germs, Tb-mice, orally” value is reported as 3 (reduction in the germ count of >70-90% = good action) and the “In vivo action, index of reduction in Tb germs, Tb-mice, subcutaneously” value was 2 (reduction in the germ count of >40-70% = distinct action). For the same compound, the “In vivo action, index of reduction in Tb germs, Tb-guinea pigs, orally” value in assay [3] is reported as 4 (reduction in the germ count of >90% = very good action).

For `CC(NC(=O)c1cc([N+](=O)[O-])cc([N+](=O)[O-])c1)c1ccccn1` (stereo not shown) [Example 29], the MIC amounted to 2 µg/mL (≈ 6.32 µM) in [1]; 1.6 µg/mL (≈ 5.06 µM) in assay [4] (setting [10]); 1.6 µg/mL (≈ 5.06 µM) in assay [4] (setting [11]); 3.1 µg/mL (≈ 9.8 µM) in assay [5]; 3.1 µg/mL (≈ 9.8 µM) in assay [6]; 3.1 µg/mL (≈ 9.8 µM) in assay [7]. In addition, the MIC was determined as 100 µg/mL (≈ 316 µM) in assay [8] and 3.1 µg/mL (≈ 9.8 µM) in [9]. Moreover, the “In vivo action, index of reduction in Tb germs, Tb-mice, orally” value in assay [2] is 4 (reduction in the germ count of >90% = very good action). The “In vivo action, index of reduction in Tb germs, Tb-mice, subcutaneously” value in [2] is reported as 3 (reduction in the germ count of >70-90% = good action).

With `O=C(NCc1ccc2ccccc2n1)c1cc([N+](=O)[O-])cc([N+](=O)[O-])c1` [Example 15], the MIC in [1] was found to be 1 µg/mL (≈ 2.84 µM); in assay [4] (setting [10]) it was 0.2 µg/mL (≈ 0.568 µM); in [4] (setting [11]), 0.2 µg/mL (≈ 0.568 µM); in [5], 0.8 µg/mL (≈ 2.27 µM); in [6], 1.6 µg/mL (≈ 4.54 µM); in assay [7], 6.2 µg/mL (≈ 17.6 µM). Also, the MIC in [8] and in [9] was 1.6 µg/mL (≈ 4.54 µM) in each case. For the same compound, in assay [2], the “In vivo action, index of reduction in Tb germs, Tb-mice, orally” value is 3 (reduction in the germ count of >70-90% = good action). The “In vivo action, index of reduction in Tb germs, Tb-mice, subcutaneously” value in assay [2] is 2 (reduction in the germ count of >40-70% = distinct action). In addition, in [3], the “In vivo action, index of reduction in Tb germs, Tb-guinea pigs, orally” value is listed as 3 (reduction in the germ count of >70-90% = good action).

In assay [1], `O=C(NCCc1ccccn1)c1cc([N+](=O)[O-])cc([N+](=O)[O-])c1` [Example 10] had an MIC of 1 µg/mL (≈ 3.16 µM). For the same compound, in assay [2], the “In vivo action, index of reduction in Tb germs, Tb-mice, orally” value is recorded as 2 (reduction in the germ count of >40-70% = distinct action) and the “In vivo action, index of reduction in Tb germs, Tb-mice, subcutaneously” value is 2 (reduction in the germ count of >40-70% = distinct action). Besides, in assay [3], the “In vivo action, index of reduction in Tb germs, Tb-guinea pigs, orally” value is 3 (reduction in the germ count of >70-90% = good action).

Turning to `O=C(NCc1cccnc1)c1cc([N+](=O)[O-])cc([N+](=O)[O-])c1` [Example 12], in assay [1], the MIC stood at 32 µg/mL (≈ 106 µM). In addition, in assay [2], the “In vivo action, index of reduction in Tb germs, Tb-mice, orally” value is on record as 2 (reduction in the germ count of >40-70% = distinct action) and the “In vivo action, index of reduction in Tb germs, Tb-mice, subcutaneously” value is 2 (reduction in the germ count of >40-70% = distinct action). Besides, in assay [3], the “In vivo action, index of reduction in Tb germs, Tb-guinea pigs, orally” value is given as 3 (reduction in the germ count of >70-90% = good action).

On to `O=C(NCc1ccccn1)c1cc([N+](=O)[O-])cc([N+](=O)[O-])c1` [Example 1, N-(pyrid-2-ylmethyl)-3,5-dinitrobenzoic acid amide], for which the MIC stood at 1 µg/mL (≈ 3.31 µM) in [1]; 1.6 µg/mL (≈ 5.29 µM) in assay [4] (setting [10]); 1.6 µg/mL (≈ 5.29 µM) in assay [4] (setting [11]); 3.1 µg/mL (≈ 10.3 µM) in [5]; 6.2 µg/mL (≈ 20.5 µM) in assay [6]; 6.2 µg/mL (≈ 20.5 µM) in assay [7]. In addition, the MIC in assay [8] was 50 µg/mL (≈ 165 µM); in assay [9] it was 6.2 µg/mL (≈ 20.5 µM). Also, in assay [2], the “In vivo action, index of reduction in Tb germs, Tb-mice, orally” value is 4 (reduction in the germ count of >90% = very good action). Further, the “In vivo action, index of reduction in Tb germs, Tb-mice, subcutaneously” value in assay [2] was 3 (reduction in the germ count of >70-90% = good action). In addition, the “In vivo action, index of reduction in Tb germs, Tb-guinea pigs, orally” value in assay [3] is reported as 4 (reduction in the germ count of >90% = very good action).
